Measured values published in article PMC8201173, “Inhibition of Carbonic Anhydrase IX Promotes Apoptosis through Intracellular pH Level Alterations in Cervical Cancer Cells” (International Journal of Molecular Sciences, 2021).

Tested on: HeLa cells
Assay: Intracellular ROS detection (ROS Deep Red)
Assay type: cell-based
Details: ROS red dye, 0–200 μM, 1 h
Protocol: Intracellular free radicals were measured using the Cellular Reactive Oxygen Species Detection Assay commercial kit (Abcam-186027, Cambridge, UK). In this kit, a fluorescence probe that is permeable to cells was used. When the probe reacts with ROS, it produces red fluorescence. According to the kit protocol, the cells were planted in black plates and incubated for 24 h. The compound E in PBS was administered at doses of 0–200 μM and incubated at 37 °C within an atmosphere of 5 % CO2 for 1 h (protected from light). After the compound E was poured out, the wells were filled with 100 µL of ROS Deep Red Working Solution, and then they were incubated at 37°C under an atmosphere of 5 % CO2 for 1 h. A fluorometry device (Spectramax M5, BioTek, VT, USA) Ex/Em: 650/675 nm (cut off: 665 nm) was used for the measuring.

SMILES: NS(=O)(=O)c1ccc(CCNCc2cc(Br)ccc2O)cc1 [Compound E, 4-(2-((5-bromo-2-hydroxybenzyl)amino)ethyl) benzenesulphonamide]
- Intracellular ROS level: amount of ROS increased in a manner dose-dependent
